Experimental findings from patent publication US9242987B2, “Heterocyclyl pyrazolopyrimidine analogues as JAK inhibitors” (Cellzome Limited, priority 2009, dated 2016) are described below.

In test [1] the target is T1, JAK2 (Homo sapiens, UniProt O60674).
T1 construct: endogenous in cells; host or cells: Mixed Molt4/Ramos lysate (1:2)
Briefly: Kinobeads assay, JAK2. The test is classed as binding. The settings on record: mixed Molt4/Ramos cell lysate, dot blot detection. A digest of the protocol: (§1)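 Competition pulldown: compound dilution series incubated 3 h in cold room with immobilized aminopyrido-pyrimidine beads and mixed Molt4/Ramos lysate (1:2, 10 mg/mL protein) in DP buffer pH 7.4 with NP40. Bead-bound JAK2/JAK3 eluted, quantified by antibody dot blot with infrared detection; IC50 from dose-response curves.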

Test [2] addresses T2, JAK3 (Homo sapiens, UniProt P52333).
T2 construct: endogenous in cells; host or cells: Mixed Molt4/Ramos lysate (1:2)
T2 sequence (P52333 1-1124): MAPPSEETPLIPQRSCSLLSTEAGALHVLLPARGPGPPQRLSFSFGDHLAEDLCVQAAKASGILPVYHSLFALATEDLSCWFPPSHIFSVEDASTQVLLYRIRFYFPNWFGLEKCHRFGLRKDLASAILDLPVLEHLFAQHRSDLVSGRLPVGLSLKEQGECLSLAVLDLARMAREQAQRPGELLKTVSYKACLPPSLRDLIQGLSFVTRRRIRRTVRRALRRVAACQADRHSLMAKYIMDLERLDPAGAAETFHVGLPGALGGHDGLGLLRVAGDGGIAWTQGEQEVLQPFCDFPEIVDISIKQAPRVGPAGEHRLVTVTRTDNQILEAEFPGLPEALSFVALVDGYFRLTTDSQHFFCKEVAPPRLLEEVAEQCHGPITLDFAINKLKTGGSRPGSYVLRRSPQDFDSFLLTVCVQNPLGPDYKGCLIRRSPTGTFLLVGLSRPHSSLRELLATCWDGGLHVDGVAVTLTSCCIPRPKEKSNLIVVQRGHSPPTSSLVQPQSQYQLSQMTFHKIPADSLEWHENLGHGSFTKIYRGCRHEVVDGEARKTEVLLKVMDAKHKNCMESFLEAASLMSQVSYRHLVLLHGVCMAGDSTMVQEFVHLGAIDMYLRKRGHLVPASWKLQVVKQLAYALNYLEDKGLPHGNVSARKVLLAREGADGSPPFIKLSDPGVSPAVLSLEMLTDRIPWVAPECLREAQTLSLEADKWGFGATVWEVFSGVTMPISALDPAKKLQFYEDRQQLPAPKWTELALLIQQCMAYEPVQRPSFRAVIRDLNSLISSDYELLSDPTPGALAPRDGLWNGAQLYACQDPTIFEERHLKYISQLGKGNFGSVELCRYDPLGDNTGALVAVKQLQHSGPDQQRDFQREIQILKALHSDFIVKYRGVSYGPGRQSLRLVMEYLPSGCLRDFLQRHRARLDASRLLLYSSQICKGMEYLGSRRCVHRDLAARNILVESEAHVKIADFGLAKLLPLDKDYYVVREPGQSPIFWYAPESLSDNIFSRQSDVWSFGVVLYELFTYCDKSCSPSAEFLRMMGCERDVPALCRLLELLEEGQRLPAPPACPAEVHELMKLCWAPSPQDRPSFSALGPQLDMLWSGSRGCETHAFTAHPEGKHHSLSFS
Briefly: Kinobeads assay, JAK3. The settings on record: mixed Molt4/Ramos cell lysate, dot blot detection. The test is classed as binding. Summed up: as §1

T1 sequence (O60674 whole entry): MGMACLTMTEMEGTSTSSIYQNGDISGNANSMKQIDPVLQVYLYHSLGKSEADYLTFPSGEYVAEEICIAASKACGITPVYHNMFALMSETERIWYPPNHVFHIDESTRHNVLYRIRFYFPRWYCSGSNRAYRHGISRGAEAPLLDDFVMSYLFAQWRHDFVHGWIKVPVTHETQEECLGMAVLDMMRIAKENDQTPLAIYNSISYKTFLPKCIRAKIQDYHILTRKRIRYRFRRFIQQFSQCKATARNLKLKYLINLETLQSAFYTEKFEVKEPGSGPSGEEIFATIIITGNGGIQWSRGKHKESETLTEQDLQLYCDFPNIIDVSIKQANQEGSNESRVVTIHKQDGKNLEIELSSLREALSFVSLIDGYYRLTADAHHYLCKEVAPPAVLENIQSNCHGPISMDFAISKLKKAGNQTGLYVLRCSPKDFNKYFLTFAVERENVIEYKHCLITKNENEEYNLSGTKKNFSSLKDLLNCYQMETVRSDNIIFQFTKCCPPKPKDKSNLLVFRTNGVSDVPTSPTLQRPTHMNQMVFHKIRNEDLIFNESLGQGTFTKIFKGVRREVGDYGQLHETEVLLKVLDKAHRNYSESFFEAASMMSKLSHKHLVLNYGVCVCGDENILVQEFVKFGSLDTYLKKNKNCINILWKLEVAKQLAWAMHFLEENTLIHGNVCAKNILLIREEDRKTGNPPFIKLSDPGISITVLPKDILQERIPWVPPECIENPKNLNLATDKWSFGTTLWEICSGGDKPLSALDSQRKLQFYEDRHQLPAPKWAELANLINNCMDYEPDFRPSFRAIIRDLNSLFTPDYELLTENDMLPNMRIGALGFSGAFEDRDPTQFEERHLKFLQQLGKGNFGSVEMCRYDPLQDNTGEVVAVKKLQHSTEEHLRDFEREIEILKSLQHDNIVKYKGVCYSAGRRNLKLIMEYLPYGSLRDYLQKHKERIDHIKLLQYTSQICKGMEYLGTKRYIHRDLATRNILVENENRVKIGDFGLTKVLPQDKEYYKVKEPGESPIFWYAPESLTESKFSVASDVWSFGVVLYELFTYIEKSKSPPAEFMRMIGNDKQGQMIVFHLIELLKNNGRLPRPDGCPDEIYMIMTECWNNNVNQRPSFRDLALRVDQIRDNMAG

With `Cc1ccc(F)cc1Cn1ncc2cnc(Nc3cnn(C)c3)nc21` [Example 116], the figures for the IC50 in test [1] and in test [2] were 100 to 1000 nM and < 100 nM, respectively.
With `Fc1ccccc1Cn1ncc2cnc(Nc3cnn(CCCN4CCC4)c3)nc21` [Example 177, N-(1-(3-(Azetidin-1-yl)propyl)-1H-pyrazol-4-yl)-1-(2-fluorobenzyl)-1H-pyrazolo[3,4-d]pyrimidin-6-amine], the IC50 in test [1] is 100 to 1000 nM; in test [2] it was < 100 nM.
Consider `C[C@@H]1CN(c2cccc(Cn3ncc4cnc(Nc5cnn(C)c5)nc43)c2)C[C@H](C)O1` [Example 175, 1-(3-((2S,6R)-2,6-Dimethylmorpholino)benzyl)-N-(1-methyl-1H-pyrazol-4-yl)-1H-pyrazolo[3,4-d]pyrimidin-6-amine], for which the IC50 is ≥ 10000 nM in test [1] and 100 to 1000 nM in test [2].
Regarding `Cn1cc(Nc2ncc3cnn(-c4ccc(NS(C)(=O)=O)cc4)c3n2)cn1` [Example 18, N-(4-(6-(1-Methyl-1H-pyrazol-4-ylamino)-1H-pyrazolo[3,4-d]pyrimidin-1-yl)phenyl)methanesulfonamide], the concentration for half-maximal inhibition (IC50) in test [1] was 100 to 1000 nM; in test [2], < 100 nM.
Regarding `COCCn1cc(Nc2ncc3cnn(Cc4ccccc4C#N)c3n2)c(C)n1` [Example 23, 2-((6-(1-(2-methoxyethyl)-3-methyl-1H-pyrazol-4-ylamino)-1H-pyrazolo[3,4-d]pyrimidin-1-yl)methyl)benzonitrile], the values for the IC50 in test [1] and in test [2] were ≥ 10000 nM and 100 to 1000 nM, respectively.
On the same counts, the results for `CNC(=O)Cn1cc(Nc2ncc3cnn(Cc4ccccc4F)c3n2)cn1` [Example 290, 2-(4-((1-(2-Fluorobenzyl)-1H-pyrazolo[3,4-d]pyrimidin-6-yl)amino)-1H-pyrazol-1-yl)-N-methylacetamide] are 100 to 1000 nM and < 100 nM.
For `COc1cc(-n2ncc3cnc(Nc4cnn(C)c4)nc32)ccc1F` [Example 58, 1-(4-Fluoro-3-methoxyphenyl)-N-(1-methyl-1H-pyrazol-4-yl)-1H-pyrazolo[3,4-d]pyrimidin-6-amine], the IC50 is ≥ 10000 nM in test [1] and 100 to 1000 nM in test [2].
For the molecule `Fc1ccccc1Cn1ncc2cnc(Nc3cn[nH]c3)nc21` [Example 88, 1-(2-Fluorobenzyl)-N-(1H-pyrazol-4-yl)-1H-pyrazolo[3,4-d]pyrimidin-6-amine], the IC50 in test [1] is 1000 to 10000 nM; in test [2], < 100 nM.
On the same counts, the results for `Cn1ccc(Nc2ncc3cnn(Cc4ccccc4C#N)c3n2)n1` [Example 3, 2-((6-(1-Methyl-1H-pyrazol-3-ylamino)-1H-pyrazolo[3,4-d]pyrimidin-1-yl)methyl)benzonitrile] are ≥ 10000 nM and 100 to 1000 nM.
On the same counts, the results for `Cn1cc(Nc2ncc3cnn(Cc4cccc(N5CC[C@@H](O)C5)n4)c3n2)cn1` [Example 208, (R)-1-(6-((6-((1-Methyl-1H-pyrazol-4-yl)amino)-1H-pyrazolo[3,4-d]pyrimidin-1-yl)methyl)pyridin-2-yl)pyrrolidin-3-ol] are ≥ 10000 nM and < 100 nM.
In the same order, the values of `Cn1cc(Nc2ncc3cnn(Cc4cc(F)ccc4Cl)c3n2)cn1` [Example 62, 1-(2-Chloro-5-fluorobenzyl)-N-(1-methyl-1H-pyrazol-4-yl)-1H-pyrazolo[3,4-d]pyrimidin-6-amine] are < 100 nM and < 100 nM.
In the case of `Cn1cc(Nc2ncc3cnn(Cc4ccccc4F)c3n2)cc1C(=O)NCCN1CCOCC1` [Example 243, 4-((1-(2-Fluorobenzyl)-1H-pyrazolo[3,4-d]pyrimidin-6-yl)amino)-1-methyl-N-(2-morpholinoethyl)-1H-pyrrole-2-carboxamide], the IC50 in test [1] and in test [2] was < 100 nM each time.
Turning to `OCCn1cc(Nc2ncc3cnn(Cc4cccc(F)c4F)c3n2)cn1` [Example 33, 2-(4-(1-(2,3-Difluorobenzyl)-1H-pyrazolo[3,4-d]pyrimidin-6-ylamino)-1H-pyrazol-1-yl)ethanol], the IC50 in test [1] was 100 to 1000 nM; in test [2], < 100 nM.
On the same counts, the results for `CC(c1ccccc1F)n1ncc2cnc(Nc3cnn(C)c3)nc21` (stereo not drawn) [Example 26, 1-(1-(2-Fluorophenyl)ethyl)-N-(1-methyl-1H-pyrazol-4-yl)-1H-pyrazolo[3,4-d]pyrimidin-6-amine] are ≥ 10000 nM and 100 to 1000 nM.
For `COc1ccc(F)c(Cn2ncc3cnc(Nc4cnn(C)c4)nc32)c1F` [Example 159, 1-(2,6-Difluoro-3-methoxybenzyl)-N-(1-methyl-1H-pyrazol-4-yl)-1H-pyrazolo[3,4-d]pyrimidin-6-amine], the IC50 is 1000 to 10000 nM in test [1] and < 100 nM in test [2].
On to `Cc1c(Nc2ncc3cnn(Cc4ccccc4C#N)c3n2)cnn1C` [Example 37, 2-((6-(1,5-Dimethyl-1H-pyrazol-4-ylamino)-1H-pyrazolo[3,4-d]pyrimidin-1-yl)methyl)benzonitrile], for which the IC50 is ≥ 10000 nM in test [1] and 100 to 1000 nM in test [2].
On the same counts, the results for `Fc1ccccc1Cn1ncc2cnc(Nc3cnn(CC(F)F)c3)nc21` [Example 128, N-(1-(2,2-Difluoroethyl)-1H-pyrazol-4-yl)-1-(2-fluorobenzyl)-1H-pyrazolo[3,4-d]pyrimidin-6-amine] are 1000 to 10000 nM and < 100 nM.
For `Cn1cc(Nc2ncc3cnn(CCc4ccccc4)c3n2)cn1` [Example 48, N-(1-Methyl-1H-pyrazol-4-yl)-1-phenethyl-1H-pyrazolo[3,4-d]pyrimidin-6-amine], the IC50 in test [1] lay in the range of 1000 to 10000 nM; in test [2], 100 to 1000 nM.
Consider `Cn1cc(Nc2ncc3cnn(Cc4cc(F)cc(F)c4F)c3n2)cn1` [Example 158, N-(1-Methyl-1H-pyrazol-4-yl)-1-(2,3,5-trifluorobenzyl)-1H-pyrazolo[3,4-d]pyrimidin-6-amine], for which the IC50 in test [1] and in test [2] was < 100 nM in each case.
For the molecule `CNC(=O)Cn1cc(Nc2ncc3cnn(Cc4ccccc4)c3n2)cn1` [Example 133, 2-(4-((1-Benzyl-1H-pyrazolo[3,4-d]pyrimidin-6-yl)amino)-1H-pyrazol-1-yl)-N-methylacetamide], the IC50 in test [1] was 1000 to 10000 nM; in test [2], < 100 nM.
On the same counts, the results for `Cn1cc(Nc2ncc3cnn(Cc4ccccc4C(N)=O)c3n2)cn1` [Example 16, 2-((6-(1-Methyl-1H-pyrazol-4-ylamino)-1H-pyrazolo[3,4-d]pyrimidin-1-yl)methyl)benzamide] are 1000 to 10000 nM and < 100 nM.
As for `Cn1cc(Nc2ncc3cnn(Cc4ccccc4OCC4CC4)c3n2)cn1` [Example 173, 1-(2-(Cyclopropylmethoxy)benzyl)-N-(1-methyl-1H-pyrazol-4-yl)-1H-pyrazolo[3,4-d]pyrimidin-6-amine], the IC50 in test [1] lay in the range of 1000 to 10000 nM; in test [2] it was 100 to 1000 nM.
On the same counts, the results for `Cn1cc(Nc2ncc3cnn(Cc4cc(F)ccc4C(N)=O)c3n2)cn1` [Example 53, 4-Fluoro-2-((6-(1-methyl-1H-pyrazol-4-ylamino)-1H-pyrazolo[3,4-d]pyrimidin-1-yl)methyl)benzamide] are < 100 nM and < 100 nM.
In the same order, the values of `Cc1nn(CC(F)F)cc1Nc1ncc2cnn(Cc3ccccc3C#N)c2n1` [Example 22, 2-((6-(1-(2,2-Difluoroethyl)-3-methyl-1H-pyrazol-4-ylamino)-1H-pyrazolo[3,4-d]pyrimidin-1-yl)methyl)benzonitrile] are ≥ 10000 nM and < 100 nM.
As to `CC(=O)n1cc(Nc2ncc3cnn(Cc4ccccc4F)c3n2)cn1` [Example 95, 1-(4-((1-(2-Fluorobenzyl)-1H-pyrazolo[3,4-d]pyrimidin-6-yl)amino)-1H-pyrazol-1-yl)ethanone], the half-inhibitory concentration (IC50) in test [1] is 1000 to 10000 nM; in test [2] it was < 100 nM.
In the same order, the values of `O=C1CNCCN1c1ccc(F)c(Cn2ncc3cnc(Nc4cnn(CCO)c4)nc32)c1F` [Example 302, 1-(2,4-Difluoro-3-((6-((1-(2-hydroxyethyl)-1H-pyrazol-4-yl)amino)-1H-pyrazolo[3,4-d]pyrimidin-1-yl)methyl)phenyl)piperazin-2-one] are 1000 to 10000 nM and < 100 nM.
Take `COc1nn(CCO)cc1Nc1ncc2cnn(Cc3ccccc3C#N)c2n1` [Example 44, 2-((6-(1-(2-Hydroxyethyl)-3-methoxy-1H-pyrazol-4-ylamino)-1H-pyrazolo[3,4-d]pyrimidin-1-yl)methyl)benzonitrile]: the IC50 was 1000 to 10000 nM in test [1] and < 100 nM in test [2].

By IC50 is commonly meant the midpoint of a concentration-inhibition curve.
